Measurements taken from PubChem BioAssay (NCI).
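Growth conditions: 96-well plates. Treatment: test compound, 48 hours, 5 concentrations. Analysis: linear interpolation between bracketing concentrations; unreached endpoints set to highest concentration. GI50 = concentration required for 50% inhibition of growth. TGI: total growth inhibition.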

Experiments:
Experiment in all cases: NCI-60 cell line screen, 48 h
HCC-2998 colon = test system: HCC-2998 colon
HOP-62 NSCLC = test system: HOP-62 NSCLC
MOLT-4 leukemia = test system: MOLT-4 leukemia
NCI-H23 lung = test system: NCI-H23 lung
NCI/ADR-RES ovarian = test system: NCI/ADR-RES ovarian
OVCAR-8 ovarian = test system: OVCAR-8 ovarian
SF-295 CNS = test system: SF-295 CNS
SK-MEL-5 melanoma = test system: SK-MEL-5 melanoma
SW-620 colon = test system: SW-620 colon
UACC-257 melanoma = test system: UACC-257 melanoma

| Compound | TGI (HCC-2998 colon) [µM] | TGI (HOP-62 NSCLC) [µM] | TGI (MOLT-4 leukemia) [µM] | TGI (NCI-H23 lung) [µM] | TGI (NCI/ADR-RES ovarian) [µM] | TGI (OVCAR-8 ovarian) [µM] | TGI (SF-295 CNS) [µM] | TGI (SK-MEL-5 melanoma) [µM] | TGI (SW-620 colon) [µM] | TGI (UACC-257 melanoma) [µM] | GI50 (HCC-2998 colon) [µM] | GI50 (HOP-62 NSCLC) [nM] | GI50 (MOLT-4 leukemia) [nM] | GI50 (NCI-H23 lung) [nM] | GI50 (NCI/ADR-RES ovarian) [nM] | GI50 (OVCAR-8 ovarian) [µM] | GI50 (SF-295 CNS) [µM] | GI50 (SK-MEL-5 melanoma) [nM] | GI50 (SW-620 colon) [nM] | GI50 (UACC-257 melanoma) [nM] |
| --- | --- | --- | --- | --- | --- | --- | --- | --- | --- | --- | --- | --- | --- | --- | --- | --- | --- | --- | --- | --- |
| CC1=NN(c2nc(N)nc(CO)n2)C(C)(C)C1 | > 100 | > 100 | > 100 | > 100 | > 100 | > 100 | > 100 | > 100 | > 100 | > 100 |  |  |  |  |  |  |  |  |  |  |
| Cc1cccc2c(=O)c3c(O)cc(O)cc3n(C)c12 | > 100 | > 100 | > 100 | > 100 | > 100 | > 100 | > 100 | > 100 | > 100 | > 100 |  |  |  |  |  |  |  |  |  |  |
| O=C1NC(N2CCCC(CO)C2)=N/C1=C\c1cccs1 (stereo not given) | > 100 | > 100 | > 100 | > 100 | > 100 | > 100 | > 100 | > 100 | > 100 | > 100 |  |  |  |  |  |  |  |  |  |  |
| COC1OC2COC(=O)c3cc(O)c(O)c(O)c3-c3c(cc(O)c(O)c3O)C(=O)OC2C(O)C1O (stereo not given) |  | > 100 | > 100 | > 100 | > 100 | > 100 | 37.8 | > 100 | 57.9 | > 100 |  |  |  |  |  |  |  |  |  |  |
| Nc1nc(SCc2ccccc2Cl)c2ncn(C3OC(CO)C(O)C3O)c2n1 (stereo not given) | > 100 | > 100 | > 100 | > 100 |  | > 100 | > 100 | > 100 | > 100 |  |  |  |  |  |  |  |  |  |  |  |
| NC(CCC(=O)c1ccccn1)C(=O)O (stereo not given) | > 100 | > 100 | > 100 | > 100 | > 100 | > 100 | > 100 | > 100 | > 100 | > 100 |  |  |  |  |  |  |  |  |  |  |
| CC(=O)OC1CCn2c1nc1cc([N+](=O)[O-])c(C)cc12 (stereo not given) | > 100 |  | > 100 | > 100 | > 100 | > 100 | > 100 | > 100 | > 100 | > 100 |  |  |  |  |  |  |  |  |  |  |
| NC(Cc1ccccc1)C(=O)OCN1C(=O)C2C3C=CC(C2C1=O)C1C(=O)N(COC(=O)C(N)Cc2ccccc2)C(=O)C31 (stereo not given) | > 100 | > 100 | 51.3 | > 100 | > 100 | > 100 | > 100 | > 100 | 77.3 | > 100 |  |  |  |  |  |  |  |  |  |  |
| CC(=O)Oc1ccc2cc(Oc3cc(Cl)c(Cl)cc3Cl)c(=O)oc2c1 | 30.8 | 36.2 | 30.4 | 88.5 |  | 34.7 | 45.7 | 24.1 | 28 | 50.6 |  |  |  |  |  |  |  |  |  |  |
| COc1cccc(NC(=O)CC(=O)NN)c1 |  | > 100 | > 100 | > 100 | > 100 | > 100 | > 100 | > 100 | > 100 | > 100 |  |  |  |  |  |  |  |  |  |  |
| [CH3][Sn]([CH3])([CH3])[S]C(=S)N1CCOCC1 | 15.7 | 4.86 | 4.05 | 4.94 | 11.2 | > 85.4 | 13.2 | 2.62 | 2.42 | 14.9 | 3.41 | 2280 | 135 | 345 | 1820 | 3.69 | 3.51 | 881 | 208 | 1220 |
| S=c1ncc(-c2cncc(-c3cnc(=S)[nH]c3)n2)c[nH]1 | > 100 |  | > 100 | > 100 | > 100 | > 100 | > 100 | > 100 | > 100 | > 100 |  |  |  |  |  |  |  |  |  |  |
| Nc1nc(N)c2nc(CN(C=O)c3ccc(C(=O)O)cc3)cnc2n1 | > 100 | > 100 | > 100 | > 100 | > 45.2 | > 100 | > 100 | > 100 | > 100 | > 100 |  |  |  |  |  |  |  |  |  |  |
| NC1=Nc2cc(C(F)(F)F)ccc2Sc2nc3ccccc3n21 | > 100 | > 100 | > 100 | > 100 | > 100 | > 100 | > 100 | > 100 | > 100 | > 100 |  |  |  |  |  |  |  |  |  |  |
| CC1(C)N=C(C(N)=O)c2[nH]cnc2N1 | > 100 | > 100 |  | > 100 | > 100 | > 100 | > 100 | > 100 | > 100 | > 100 |  |  |  |  |  |  |  |  |  |  |
| C[N+]1(C)CCCC(C#N)(c2ccccc2)CC1 (stereo not given) | > 100 | > 100 | > 100 | > 100 | > 100 | > 100 | > 100 | > 100 | > 100 | > 100 |  |  |  |  |  |  |  |  |  |  |
| CCOC(=O)C1=C(O)CC(=O)N=C1N1CCCC1 | > 100 | > 100 | > 100 | > 100 | > 100 | > 100 | > 100 | > 100 | > 100 | > 100 |  |  |  |  |  |  |  |  |  |  |
| CN(C)C(=O)C(F)(F)C(c1ccccc1Br)C1C(=O)N(C)C(=O)N(C)C1=O (stereo not given) | > 100 | > 100 |  | > 100 | > 100 | > 100 | > 100 | > 100 | > 100 | > 100 |  |  |  |  |  |  |  |  |  |  |
| C=CCOCC1C2CCC3(OCCO3)C21 (stereo not given) | > 100 | > 100 | > 100 | > 100 | > 100 | > 100 | > 100 | > 100 | > 100 | > 100 |  |  |  |  |  |  |  |  |  |  |
| CC1CC(=O)N(N(C)C)C2(C#N)C(=O)N=C(N)C12C#N (stereo not given) | > 100 | > 100 | > 100 | > 100 | > 100 | > 100 | > 100 | > 100 | > 100 | > 100 |  |  |  |  |  |  |  |  |  |  |
| C/C(=C\C(=O)Nc1ccc2n[nH]nc2c1)Nc1ccc2n[nH]nc2c1 | > 100 | > 100 | > 100 | > 100 |  | > 100 | > 100 | > 100 | > 100 | > 100 |  |  |  |  |  |  |  |  |  |  |
